Data taken from US10190094B2, “Methods and compositions related to induced sensory neurons” (priority 2013, dated 2019).
“And” between values parts separate entries of the source, which are not always exact repeats. Equal values may be shown once. Read-outs that look alike come from different tables or passages of the source.

Tests used:
[1] = tested on: MEFs; assay: Reprogramming of MEFs in presence of EdU or mitotic inhibitor AraC; format: cell-based, mouse
Description: Immunohistochemistry, and RT-PCR: For immunofluorescence staining, cells were fixed 4% paraformaldehyde for 10 minutes at room temperature. Cells were then washed three times with PBS and subsequently permeabilized with 0.1% Triton X-100 (Sigma) in PBS. After washing and permeabilization cells were blocked in 5% horse serum for thirty minutes at room temperature. Primary staining was performed overnight at 4° C. in block. Secondary antibodies were diluted in blocking solution and stained room temperature for one hour. EdU staining was performed using Click-it EdU kit (C10337;Invitrogen) following manufacturer's instructions. […]
We examined whether the observed reprogramming of fibroblasts to the somatic sensory lineage requires cell division or specialized embryonic precursors. […] Second, to further block proliferation we applied the mitotic inhibitor arabinofuranosyl cytidine (AraC) to cultures continuously from three days post induction and quantified the number of Map2-positive cells on day 14.

[2] = tested on: BN1 and BN2 iSNs (TrpA1, TrpM8, TrpV1); assay: Calcium imaging of mouse iSNs exposed to Trp channel ligands (Map2::GCAMP5.G); format: cell-based
[3] = tested on: Human iSNs (TRPA1, TRPM8, TRPV1); assay: Calcium imaging of human iSNs exposed to TRP channel ligands; format: cell-based
[4] = mouse BN1 iSNs, KCl responders, 10 μM capsaicin, 100 μM menthol, 100 μM mustard oil
[5] = mouse BN2 iSNs, KCl responders, 10 μM capsaicin, 100 μM menthol, 100 μM mustard oil
[6] = human BN1 iSNs, KCl responders, 10 μM capsaicin, 100 μM menthol, 100 μM mustard oil
[7] = human BN2 iSNs, KCl responders, 10 μM capsaicin, 100 μM menthol, 100 μM mustard oil

| Structure (SMILES) | inhibition of proliferative cells ([1]; 4 μM) [%] | effect of mitotic inhibition on number of neurons (Map2-positive cells) produced during reprogramming ([1]; applied continuously from three days post induction, counted day 14, BN1 or BN2) | iSNs exhibiting calcium transients in response to ligand [2] | iSNs exhibiting calcium transients in response to ligand [3] | iSNs exhibiting calcium transients in response to ligand [2, 4] | iSNs exhibiting calcium transients in response to ligand [2, 5] | iSNs exhibiting calcium transients in response to ligand [3, 6] | iSNs exhibiting calcium transients in response to ligand [3, 7] |
| --- | --- | --- | --- | --- | --- | --- | --- | --- |
| Nc1ccn([C@@H]2O[C@H](CO)[C@@H](O)[C@@H]2O)c(=O)n1 [AraC, arabinofuranosyl cytidine] | > 90 | did not significantly alter the number of neurons |  |  |  |  |  |  |
| C=CCN=C=S [mustard oil, allyl isothiocyanate] |  |  | 12.9%±3.8 and 12.5%±3.4 | 12.8%±4.5 and 8.8%±3.7 |  |  |  |  |
| CC1CCC(C(C)C)C(O)C1 (stereo not drawn) [menthol] |  |  |  |  | 15.4%±2.6 | 17.4%±4.3 | 4.4%±1.4 | 6.0%±2.3 |
| COc1cc(CNC(=O)CCCC/C=C/C(C)C)ccc1O [capsaicin] |  |  |  |  | 19.7%±3.0 | 21.2%±3.5 | 4.4%±1.7 | 5.9%±3.3 |
